Measured values published in patent US20160015743A1, “METHODS FOR TREATING CANCER” (priority 2013, published 2016).
Where a SMILES comes first, the peptide text is derived from it. The star is where a group is joined. Cbz = O=C(OCc1ccccc1)*

Experiments:
solid and liquid tumors = settings: references 48-51; cited from earlier work
HCT-116 cells [1] = assay: TUNEL staining of apoptotic cells; format: cell-based, human; settings: 16 h
Description: (§1) (a, b&d) In vivo SUMOylation and ubiquitination assay. As for (a), HCT-116 cells were treated with As2O3 for 16 h (2.5 μM). Cell lysates were harvested at different time points (0, 1, 4 and 16 h). As for (b), WT or mutant cyclin D1 (K149R, T286A, DM) construct was stably transfected into HCT-116 cells. Then the cells were treated with As2O3 for 1 h. As for (d), HCT-116 cells were treated with As2O3 for 16 h (2.5 μM) in the absence or presence of MG132 (10 μM, 6 h of incubation). The SUMOylated and ubiquitylated cyclin D1 was detected as described in FIG. 1f. Cyclin D1 protein levels were detected using anti-cyclin D1 antibody (a&d) or anti-HA-antibody (b) by western blotting. (c) WT or mutant cyclin D1 (K149R, T286A, DM) construct was stably transfected into HCT-116 cells. Then the cells were treated with As2O3 for 16 h. Cyclin D1 protein levels were detected using anti-HA-antibody by western blotting. (e) TUNEL staining. WT or mutant cyclin D1 (K149R, T286A) construct was stably transfected into HCT-116 cells. Then the cells were treated with As2O3 (2.5 μM) for 16 h. The apoptotic cells were detected using Promega's DEADEND Colorimetric TUNEL System. Yellow arrows are pointing at apoptotic cells. (f) Flow cytometry. WT or mutant cyclin D1 (K149R) construct was stably transfected into HCT-116 cells. Then the cells were treated with As2O3 for 16 h (2.5 μM). Cell cycle progression was detected by flow cytometry. (As, arsenic trioxide)
Cell apoptosis was detected using fluorescent in situ terminal deoxynucleotidyl transferase-mediated uridine 5′-triphosphate-biotin nick end labeling (TUNEL staining). Sections were first permeabilized in 0.1% Triton X-100 in phosphate-buffered saline (PBS) for 8 mins. TUNEL reaction mixture was obtained by adding terminal deoxynucleotidyl transferase to nucleotide mixture, as instructed by the manufacturer's manual (DEADEND Fluorometric TUNEL System, Promega). Sections were counterstained nuclei with 4′-6-Diamidino-2-phenylindole (DAPI).

cyclin D1 [2] = molecular target: T1, cyclin D1 (Homo sapiens, UniProt P24385); assay: In vivo SUMOylation and ubiquitylation assay (co-immunoprecipitation, western blotting); format: cell-based
T1 construct: endogenous in cells; host or cells: HCT-116
Description: as §1
(§2) SUMOylated cyclin D1 or ubiquitylated cyclin D1 was detected by co-immunoprecipitation using anti-SUMO-2/3 antibody or anti-ubiquitin antibody conjugated beads (Enzo Life Science), followed by immunoblotting with anti-cyclin D1 antibody or anti-HA antibody for cyclin D1 detection.

cyclin D1 [3] = molecular target: T2, cyclin D1 (Homo sapiens, UniProt P24385, T286A); assay: as above; format: cell-based; settings: HCT-116 cells stably expressing T286A mutant cyclin D1, treated 1 and 16 hours
T2 construct: endogenous in cells; host or cells: HCT-116
Description: as §1, §2

HCT-116 cells [4] = assay: Cell cycle analysis by flow cytometry; format: cell-based, human; settings: HCT-116 cells transfected with K149R mutant cyclin D1 compared with WT, As2O3 2.5 μM, 16 h
Description: as §1, with “WT or mutant cyclin D1 (K149R, T286A) construct was stably transfected into HCT-116 cells. Then the cells were treated with As2O3 (2.5 μM) for 16 h.” left out, “Yellow arrows are pointing at apoptotic cells. (f) Flow cytometry. WT or mutant cyclin D1 (K149R) construct was stably transfected into HCT-116 cells. Then the cells were treated with As2O3 for 16 h (2.5 μM).” left out, “(As, arsenic trioxide)” left out
FACS analysis was performed as described in the research by Santra et al (55). […] FACS samples were analyzed with a FACSCANTO Flow Cytometry System (BD Biosciences). And the data were analyzed using FlowJo 7.6 software according to the manufacturer's instruction.

tumor = settings: reference 52; cited from earlier work
cyclin D1 [5] = assay: Cyclin D1 protein levels by western blotting in HCT-116 cells; format: cell-based, human; settings: HCT-116 cells, Itch siRNA, As2O3 2.5 μM, 48 h
Description: as §1
(§3) 48 h later, the cyclin D1 protein levels were detected through western blotting.
(§4) Western blotting and immunoprecipitation (IP) were performed as previously described (54). The interaction between endogenous Cyclin D1 and Itch was determined in HEK293 cells. Proteasome inhibitor MG132 (10 μM) (Sigma, St. Louis, Mo.) was added to the cell culture 6 hours before cells were harvested for immunoprecipitation assay. […]

cyclin D1 [6] = molecular target: T3, cyclin D1 (Homo sapiens, UniProt P24385, K149R); assay: as above; format: cell-based; settings: HCT-116 cells stably expressing K149R mutant cyclin D1, treated 16 h
T3 construct: endogenous in cells; host or cells: HCT-116
Description: as §1, §3, §4

cyclin D1 [7] = molecular target: T4, cyclin D1 (Homo sapiens, UniProt P24385, K149R/T286A); assay: as above; format: cell-based; settings: HCT-116 cells stably expressing K149R/T286A mutant cyclin D1, treated 16 h
T4 construct: endogenous in cells; host or cells: HCT-116
Description: as §1, §3, §4

cyclin D1 [8] = assay: Cyclin D1 protein levels by western blotting in transfected HEK293 cells with or without MG132; format: cell-based, human
Description: Ubc9 (a), SUMO1 (b), SUMO2 (c), SUMO3 (d) together with SENP1 constructs was co-transfected with cyclin D1 into HEK293 cells in the absence or presence of proteasome inhibitor MG132 (10 μM, 6 h of incubation). Cyclin D1 protein levels were detected through western blotting. (e) siRNA specific for Ubc9 was transiently transfected in human colon cancer cell HCT116 cells. Endogenous cyclin D1 protein levels were detected through western blotting. (f) In vivo SUMOylation and ubiquitination assay. HA-cyclin D1 was co-transfected with Ubc9 and SENP1 expression plasmids into HEK293 cells in the presence of MG132 (10 μM, 6 h of incubation). […]
(a) Cell lysates were extracted from different tissues of wt or Itch-KO mice. Endogenous cyclin D1 protein levels were detected using anti-cyclin D1 antibody by western blotting. […] Endogenous cyclin D1 protein levels were detected using anti-cyclin D1 antibody by western blotting. […] Cyclin D1 protein levels were detected using anti-HA antibody by western blotting. […] 24 h after transfection, the cell lysates were collected, the ubiquitylated cyclin D1 was detected as described in FIG. 1f. […] Cyclin D1 protein levels were detected using anti-HA antibody by western blotting. […]
Western blotting and immunoprecipitation (IP) were performed as previously described (54). The interaction between endogenous Cyclin D1 and Itch was determined in HEK293 cells. […]

T1 sequence (P24385 whole entry): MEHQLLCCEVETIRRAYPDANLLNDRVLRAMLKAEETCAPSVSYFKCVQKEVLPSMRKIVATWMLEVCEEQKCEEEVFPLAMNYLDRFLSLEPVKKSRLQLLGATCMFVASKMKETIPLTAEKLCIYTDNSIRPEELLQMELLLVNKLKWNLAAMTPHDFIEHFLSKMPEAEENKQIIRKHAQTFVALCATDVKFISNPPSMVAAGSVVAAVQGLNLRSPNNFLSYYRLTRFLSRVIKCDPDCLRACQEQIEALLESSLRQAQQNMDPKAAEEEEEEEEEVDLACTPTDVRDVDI
T2 sequence (P24385 whole entry T286A): as the sequence (P24385 whole entry) above, with T286A counted along it
T3 sequence (P24385 whole entry K149R): as the sequence (P24385 whole entry) above, with K149R counted along it
T4 sequence (P24385 whole entry K149R/T286A): as the sequence (P24385 whole entry) above, with K149R, T286A counted along it

Compound	cell apoptosis in solid and liquid tumors (solid and liquid tumors)	cell apoptosis (TUNEL) (HCT-116 cells [1]; HCT-116 cells stably transfected with K149R mutant cyclin D1, As2O3 2.5 μM)	cell apoptosis (TUNEL) (HCT-116 cells [1]; HCT-116 cells stably transfected with K149R mutant cyclin D1, As2O3 2.5 μM, listed as arsenic trioxide)	cell apoptosis (TUNEL) (HCT-116 cells [1]; HCT-116 cells stably transfected with T286A cyclin D1, As2O3 2.5 μM)	cell apoptosis (TUNEL) (HCT-116 cells [1]; HCT-116 cells stably transfected with WT cyclin D1, As2O3 2.5 μM)	SUMOylation, polyubiquitination and degradation of cyclin D1 (cyclin D1 [2]; HCT-116 cells stably expressing WT cyclin D1, treated 1 and 16 hours)	SUMOylated- and polyubiquitinated-cyclin D1 (cyclin D1 [2]; HCT-116 cells, As2O3 2.5 μM, 1 h after treatment)	modified (SUMOylated/polyubiquitinated) cyclin D1 (cyclin D1 [2]; HCT-116 cells, As2O3 2.5 μM, after 16 h treatment)	SUMOylation, polyubiquitination and degradation of cyclin D1 (cyclin D1 [3])	G1 arrest (HCT-116 cells [4])	tumor size in nude mice (tumor)	degradation of cyclin D1 under silencing of Itch expression (cyclin D1 [5])	degradation of cyclin D1 (cyclin D1 [6])	degradation of cyclin D1 (cyclin D1 [7])	effect on Itch-induced cyclin D1 degradation (cyclin D1 [8]; HEK293 cells co-transfected with Itch and cyclin D1, MG132 10 μM 6 h)	effect on degradation of cyclin D1 caused by Ubc9 (cyclin D1 [8]; HEK293 cells co-transfected with Ubc9 and cyclin D1, MG132 10 μM 6 h)	effect on As2O3-mediated cyclin D1 SUMOylation and polyubiquitination (cyclin D1 [2]; HCT-116 cells, As2O3 2.5 μM 16 h, MG132 10 μM 6 h)
arsenic trioxide [As2O3]	induces cell apoptosis	much lower	significantly decreased	induced accelerated cell apoptosis	induced accelerated cell apoptosis	induced SUMOylation, polyubiquitination and degradation of cyclin D1	accumulated	disappeared	induced SUMOylation, polyubiquitination and degradation of cyclin D1	failed to induce efficient G1 arrest	tumor shrink	did not abrogated degradation of cyclin D1	no effect	no effect	–	–	–
CC(C)C[C@@H](C=O)NC(=O)[C@H](CC(C)C)NC(=O)[C@H](CC(C)C)NC(=O)OCc1ccccc1 [MG132] (Cbz-Leu-Leu-Leu-aldehyde)	–	–	–	–	–	–	–	–	–	–	–	–	–	–	reversed the effect of Itch on cyclin D1 degradation	reversed the degradation of cyclin D1	reversed
